As a reminder, the viability is a read-out of living cells in per cent, often relative to untreated cells.

Results on 32 compounds are retold here after PMC12040169 (PLOS Biology, 2025).

This data set in a line: in vitro. To be noted: human, hela cells, % viability.

In the case of `Cc1ccc(C(=O)NC(=S)Nc2ccc(C(=O)O)c(Cl)c2)cc1Cl` [CBK265068], the viability at 28.5 h, 10 µM stood at 95%. On the same count and under the same terms, to `CSc1nn(C)c(=S)c2c3c(oc12)CCC3` [CBK019474] belongs 92.3%; to `Cc1nc(C(Cc2ccsc2)NC(=O)C(C)(C)N)sc1C` (centres unmarked) [CBK284775], 93%. Still for that read-out and setting: with `O=C1COc2ccccc2C/C=C/CC2(CCCN(C(=O)CCN3CCCC3)C2)CN1` (centres unmarked) [CBK292136] the figure was 102%; with `COc1ccc(CCNC(=O)CSC(C)C(=O)O)cc1` (centres unmarked) [CBK297493], 81.4%; with `Cn1nc(NC(=O)c2cnccn2)c2c(N3CCOCC3)cccc21` [CBK306716], 100%.

On to `Cc1ccc(C(=O)O)cc1S(=O)(=O)N1CCC(C(=O)O)CC1` [CBK267327], for which the viability at 28.5 h, 10 µM turned out to be 107%. For the compound `CC(C)CCn1cc(C(=O)N2CCNCC2c2cccc(Cl)c2)nn1` (centres unmarked) [CBK304115], the viability at 28.5 h, 10 µM was determined as 91.4%.

Consider `CC(Oc1ccccc1)C(=O)Nc1ccccc1NC(=O)c1ccco1` (centres unmarked) [CBK269636], for which the viability at 28.5 h, 10 µM worked out at 88.4%.

Consider `CCCCc1ccc(-c2nc3ncccc3cc2O)cc1` [CBK073702], for which the viability at 28.5 h, 10 µM was found to be 91.3%. Regarding `O=C(O)c1ccc(-n2cccc2)cc1` [CBK016141], the viability at 28.5 h, 10 µM was 110%. Same read-out and setting: to `Cn1c(=O)n(C)c2cc(NC(=O)CN(c3ccccc3)S(C)(=O)=O)ccc21` [CBK270094] belongs 103%; to `Nc1nnc(SC2c3cccc4cccc(c34)C2NS(=O)(=O)c2ccc(Cl)cc2)s1` (centres unmarked) [CBK266373], 99.7%. On the same count and under the same terms, with `Cc1ccc(C2=CCN(CC(=O)N3CCCCC3C)CC2)o1` (centres unmarked) [CBK283556] the figure was 86.8%. Consider `O=C(O)c1nn(Cc2ccc(Cl)c(Cl)c2)c2ccccc12` [CBK088455], for which the viability at 28.5 h, 10 µM (bulk resorufin, single well) worked out at 91.2%. As to `CC(=O)N[C@@H](CC(C)C)C(=O)Nc1cc(C)nc2ccccc12` [CBK116265], the viability at 28.5 h, 10 µM came out at 94.3%. Regarding `OCCCNC(=S)NCCc1ccccc1` [CBK264869], the viability at 28.5 h, 10 µM amounted to 99.7%. With `CN(CC(=O)Nc1sc2c(c1C#N)CCCCC2)Cc1cnn(C)c1` [CBK304621], the viability at 28.5 h, 10 µM amounted to 94.3%. Turning to `COc1cc(NC(=O)N(CCC#N)C2CCCCC2)cc(OC)c1OC` [CBK156380], the viability at 28.5 h, 10 µM is 94.4%.

As to `CN1CCC2(CC1)NCCc1c2ccn1S(=O)(=O)c1cccc2c(N(C)C)cccc12` [CBK061633C], the viability at 28.5 h, 10 µM came out at 105%. As to `O=C(O)CN(CC(=O)O)S(=O)(=O)c1ccc(Cl)cc1` [CBK261526], the viability at 28.5 h, 10 µM stood at 92.2%. The same measure, in the same setting: to `CS(=O)(=O)N1CC2(CCN(Cc3ccc([N+](=O)[O-])cc3)CC2)c2ccccc21` [CBK084010] belongs 104%; to `O=S(=O)(CC(F)(F)F)Nc1ccc(-c2nnn[nH]2)cc1` [CBK154754], 107%; to `COc1cc(CNC(=O)N2CCN(CCc3ccccc3)CC2)cc(OC)c1OC` [CBK158910], 91.8%.

As for `COC(=O)[C@@H](C)NC(=O)[C@H]1CN(S(=O)(=O)c2ccccc2)CCN1C(C)=O` [CBK289626], the viability at 28.5 h, 10 µM turned out to be 88.2%. Take `COc1ccc(C(=O)N2CCC3(CCN(Cc4cccc(C#N)c4)C3)C2)cc1OC` (centres unmarked) [CBK132153]: the viability at 28.5 h, 10 µM stood at 87.7%. Take `C=CCN1CCC(C(=O)NC(C)c2cc(OC)ccc2OC)CC1` (centres unmarked) [CBK148762]: the viability at 28.5 h, 10 µM was determined as 116%. Still for that read-out and setting: to `Cn1ccnc1CNC(=O)c1cccc(OCC(=O)N2CCCCC2)c1` [CBK306635] belongs 86.8%; to `COc1ccc(C(C)C)cc1-c1nccnc1N[C@@H](CO)C(C)C` [CBK036711], 109%. Still for that read-out and setting: with `CS(=O)(=O)Nc1ncc(-c2ccco2)cc1C(=O)Nc1ccon1` [CBK076512] the figure was 89.6%; with `O=C(O)c1nn2c(C(F)(F)F)cc(-c3cccs3)nc2c1Cl` [CBK262581], 95.4%; with `O=C(Oc1ccc2c(c1)OCO2)c1cc(S(=O)(=O)N2CCOCC2)c(Cl)cc1Cl` [CBK269709], 101%.
